These results are taken from patent US9200008B2 (ASKA PHARMACEUTICAL CO., LTD., priority 2010, dated 2015).

For the assay, the system named is Human prostate cancer cell lines (PC-3 cells). Nature of the assay: Measurement of cell death-inducing activity (Test Example 1). The assay is classed as cell-based. As to conditions: PC-3, 48 h, 48 hours after addition, tested at 10, 1, 0.1, 0.025 and 0.00625 μmol/L, qualitative evaluation of 10 fields, read-out: Concentration showing the cell death-inducing activity (cell death-inducing rate not less than 40%). Put shortly: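 PC-3 cells seeded at 1×10^5 cells/well and grown 48 h at 37 °C, 5% CO2, then exposed to compound at 10, 1, 0.1, 0.025 and 0.00625 μmol/L (DMSO control) for a further 48 h. Activity was called where cell death-inducing rate was not less than 40%.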
For the compound `Cc1ccc(-c2cc(NC(=O)OCc3ccc4c(c3)nc3n4CCC3)n(C)n2)c(C)c1` [Example 9-260], the minimal effective concentration was 0.025 µM.

In the case of `COc1cc(C)ccc1-c1cc(NC(=O)OCc2ccc3c(c2)nc2n3CCC2)n(C)n1` [Example 9-261], the minimal effective concentration amounted to 0.025 µM.

For the compound `CCn1nc(-c2ccc(C)cc2OC)cc1NC(=O)OCc1ccc2c(c1)nc1n2CCC1` [Example 9-262], the minimal effective concentration was 0.025 µM.

As for `COc1ccccc1-c1cc(NC(=O)OCc2ccc3c(c2)nc2n3CCCC2)n(C)n1` [Example 9-263], the minimal effective concentration came out at 1 µM.

For the compound `CCn1nc(-c2ccccc2OC)cc1NC(=O)OCc1ccc2c(c1)nc1n2CCCC1` [Example 9-264], the minimal effective concentration was 1 µM.

On to `COc1cc(F)ccc1-c1cc(NC(=O)OCc2ccc3c(c2)nc2n3CCCC2)n(C)n1` [Example 9-265], for which the minimal effective concentration is 1 µM.

Consider `CCn1nc(-c2ccc(F)cc2OC)cc1NC(=O)OCc1ccc2c(c1)nc1n2CCCC1` [Example 9-266], for which the minimal effective concentration was found to be 1 µM.

For the compound `COc1cc(Cl)ccc1-c1cc(NC(=O)OCc2ccc3c(c2)nc2n3CCCC2)n(C)n1` [Example 9-267], the minimal effective concentration came to 0.025 µM.

As for `CCn1nc(-c2ccc(Cl)cc2OC)cc1NC(=O)OCc1ccc2c(c1)nc1n2CCCC1` [Example 9-268], the minimal effective concentration is 0.1 µM.

Turning to `COc1cc(C)ccc1-c1cc(NC(=O)OCc2ccc3c(c2)nc2n3CCCC2)n(C)n1` [Example 9-269], the minimal effective concentration amounted to 0.1 µM.

For `CCn1nc(-c2ccc(C)cc2OC)cc1NC(=O)OCc1ccc2c(c1)nc1n2CCCC1` [Example 9-270], the minimal effective concentration is 0.1 µM.

As to `Cc1ccc(-c2cc(NC(=O)OCc3ccc4c(c3)nc3n4CCCC3)n(C)n2)c(C)c1` [Example 9-271], the minimal effective concentration was 0.1 µM.

Consider `COCCn1cnc2cc(COC(=O)Nc3cc(-c4ccc(Cl)cc4OC)nn3C)ccc21` [Example 9-273], for which the minimal effective concentration was found to be 10 µM.

As to `COCc1nc2cc(COC(=O)Nc3cc(-c4ccc(Cl)cc4OC)nn3C)ccc2n1C` [Example 9-274], the minimal effective concentration stood at 1 µM.

For the compound `Cn1nc(-c2ccc(Cl)cc2Cl)cc1NC(=O)OCc1ccc2c(cnn2C)c1` [Example 9-275], the minimal effective concentration was 1 µM.

On to `CCn1nc(-c2ccc(Cl)cc2Cl)cc1NC(=O)OCc1ccc2c(cnn2C)c1` [Example 9-276], for which the minimal effective concentration amounted to 1 µM.

In the case of `Cc1ccccc1-c1cc(NC(=O)OCc2ccc3c(cnn3C)c2)n(C)n1` [Example 9-277], the minimal effective concentration stood at 10 µM.

Regarding `Cn1nc(-c2ccccc2C(F)(F)F)cc1NC(=O)OCc1ccc2c(cnn2C)c1` [Example 9-278], the minimal effective concentration stood at 10 µM.

Regarding `CCn1nc(-c2ccc(F)cc2OC)cc1NC(=O)OCc1ccc2c(cnn2C)c1` [Example 9-279], the minimal effective concentration turned out to be 1 µM.

For `COc1cc(Cl)ccc1-c1cc(NC(=O)OCc2ccc3c(cnn3C)c2)n(C)n1` [Example 9-280], the minimal effective concentration is 0.00625 µM.

`CCn1nc(-c2ccc(Cl)cc2OC)cc1NC(=O)OCc1ccc2c(cnn2C)c1` [Example 9-281]: the minimal effective concentration was 0.025 µM.

Regarding `COc1cc(C)ccc1-c1cc(NC(=O)OCc2ccc3c(cnn3C)c2)n(C)n1` [Example 9-283], the minimal effective concentration amounted to 0.025 µM.

Turning to `CCn1nc(-c2ccc(C)cc2OC)cc1NC(=O)OCc1ccc2c(cnn2C)c1` [Example 9-284], the minimal effective concentration is 0.1 µM.

As for `Cc1ccc(-c2cc(NC(=O)OCc3ccc4c(cnn4C)c3)n(C)n2)c(C)c1` [Example 9-285], the minimal effective concentration came to 0.1 µM.

As for `CCn1nc(-c2ccc(C)cc2C)cc1NC(=O)OCc1ccc2c(cnn2C)c1` [Example 9-286], the minimal effective concentration was determined as 0.1 µM.

For `COc1ccccc1-c1cc(NC(=O)OCc2ccc3nn(C)cc3c2)n(C)n1` [Example 9-288], the minimal effective concentration came to 1 µM.

Consider `CCn1nc(-c2ccccc2OC)cc1NC(=O)OCc1ccc2nn(C)cc2c1` [Example 9-289], for which the minimal effective concentration is 1 µM.

In the case of `COc1cc(F)ccc1-c1cc(NC(=O)OCc2ccc3nn(C)cc3c2)n(C)n1` [Example 9-290], the minimal effective concentration came to 0.1 µM.

For the compound `COc1cc(Cl)ccc1-c1cc(NC(=O)OCc2ccc3nn(C)cc3c2)n(C)n1` [Example 9-291], the minimal effective concentration is 0.025 µM.

With `CCn1nc(-c2ccc(Cl)cc2OC)cc1NC(=O)OCc1ccc2nn(C)cc2c1` [Example 9-292], the minimal effective concentration is 0.025 µM.

Regarding `COc1cc(C)ccc1-c1cc(NC(=O)OCc2ccc3nn(C)cc3c2)n(C)n1` [Example 9-293], the minimal effective concentration was determined as 0.1 µM.

For the compound `COc1ccc(-c2cc(NC(=O)OCc3ccc4nn(C)cc4c3)n(C)n2)c(OC)c1` [Example 9-294], the minimal effective concentration stood at 1 µM.

With `Cc1ccc(-c2cc(NC(=O)OCc3ccc4nn(C)cc4c3)n(C)n2)c(C)c1` [Example 9-295], the minimal effective concentration amounted to 0.1 µM.

In the case of `CCn1nc(-c2ccc(C)cc2C)cc1NC(=O)OCc1ccc2nn(C)cc2c1` [Example 9-296], the minimal effective concentration turned out to be 1 µM.

For `COc1cc(Cl)ccc1-c1cc(NC(=O)OCc2ccc3cnn(C)c3c2)n(C)n1` [Example 9-297], the minimal effective concentration came to 10 µM.

For the compound `CCn1ncc2ccc(COC(=O)Nc3cc(-c4ccc(Cl)cc4OC)nn3C)cc21` [Example 9-298], the minimal effective concentration is 10 µM.

Turning to `COc1cc(Cl)ccc1-c1cc(NC(=O)OCc2ccc3cn(C)nc3c2)n(C)n1` [Example 9-300], the minimal effective concentration was determined as 0.00625 µM.

`CCn1cc2ccc(COC(=O)Nc3cc(-c4ccc(Cl)cc4OC)nn3C)cc2n1` [Example 9-301]: the minimal effective concentration worked out at 0.025 µM.

`CCn1cc2ccc(COC(=O)Nc3cc(-c4ccc(Cl)cc4OC)nn3CC)cc2n1` [Example 9-302]: the minimal effective concentration was 0.1 µM.

`CCn1nc(-c2ccc(C)cc2C)cc1NC(=O)OCc1ccc2cn(C)nc2c1` [Example 9-303]: the minimal effective concentration is 1 µM.

For `CCn1cc2ccc(COC(=O)Nc3cc(-c4ccc(C)cc4C)nn3C)cc2n1` [Example 9-304], the minimal effective concentration stood at 1 µM.

Regarding `CCn1cc2ccc(COC(=O)Nc3cc(-c4ccc(C)cc4C)nn3CC)cc2n1` [Example 9-305], the minimal effective concentration is 1 µM.

As for `Cn1nc(NC(=O)OCc2ccc3c(c2)ncn3C)cc1-c1ccccc1` [Example 9-306], the minimal effective concentration amounted to 10 µM.

For `COc1cc(Cl)ccc1-c1cc(NC(=O)OCc2ccc3c(c2)ncn3C)nn1C` [Example 9-309], the minimal effective concentration worked out at 10 µM.

As for `COc1cc(Cl)ccc1-c1nn(C)c(NC(=O)OCc2ccc3c(c2)ncn3C)c1C` [Example 9-311], the minimal effective concentration was determined as 10 µM.

With `CCn1cnc2cc(COC(=O)Nc3c(C)c(-c4ccc(Cl)cc4OC)nn3C)ccc21` [Example 9-313], the minimal effective concentration amounted to 10 µM.

With `Cn1nc2c(c1NC(=O)OCc1ccc3c(c1)ncn3C)COc1ccccc1-2` [Example 9-320], the minimal effective concentration worked out at 10 µM.

As to `CCn1nc2c(c1NC(=O)OCc1ccc3c(c1)ncn3C)COc1ccccc1-2` [Example 9-321], the minimal effective concentration is 10 µM.

Turning to `Cn1nc2c(c1NC(=O)OCc1ccc3c(cnn3C)c1)COc1ccccc1-2` [Example 9-324], the minimal effective concentration was determined as 10 µM.

`Cn1cnc2cc(COC(=O)Nc3nnc(-c4ccc(Cl)cc4Cl)s3)ccc21` [Example 9-335]: the minimal effective concentration was 10 µM.

As for `CCn1nc(-c2ccc(Cl)cc2Cl)cc1NC(=O)OC(C)c1ccc2c(c1)ncn2C` (stereo not drawn) [Example 9-337], the minimal effective concentration came out at 10 µM.

Turning to `COc1cc(Cl)ccc1-c1cc(NC(=O)OC(C)c2ccc3c(c2)ncn3C)n(C)n1` (stereo not drawn) [Example 9-338], the minimal effective concentration came out at 10 µM.

For the compound `Cc1ccc(-c2cc(NC(=O)OC(C)c3ccc4c(c3)ncn4C)n(C)n2)c(C)c1` (stereo not drawn) [Example 9-339], the minimal effective concentration was 10 µM.

Take `COc1cc(Cl)ccc1-c1nc(C)c(NC(=O)OCc2ccc3c(c2)nc2n3CC(O)C2)s1` (stereo not drawn) [Example 9-340]: the minimal effective concentration is 0.025 µM.

Regarding `COc1cc(C)ccc1-c1nc(C)c(NC(=O)OCc2ccc3c(c2)nc2n3CC(O)C2)s1` (stereo not drawn) [Example 9-341], the minimal effective concentration stood at 0.025 µM.

In the case of `COc1cc(C)ccc1-c1nc(C)c(NC(=O)OCc2ccc3c(c2)nc2n3CCC(O)C2)s1` (stereo not drawn) [Example 9-342], the minimal effective concentration is 1 µM.

As to `COc1cc(Cl)ccc1-c1nc(C)c(NC(=O)OCc2ccc3c(c2)nc2n3CCC(O)C2)s1` (stereo not drawn) [Example 9-343], the minimal effective concentration is 0.1 µM.

For `CCc1nc(-c2ccc(C)cc2OC)sc1NC(=O)OCc1ccc2c(c1)ncn2C` [Example 9-344], the minimal effective concentration was 0.00625 µM.

Take `CCc1nc(-c2ccc(Cl)cc2C)sc1NC(=O)OCc1ccc2c(c1)ncn2CC` [Example 9-345]: the minimal effective concentration came out at 0.025 µM.

For the compound `CCc1nc(-c2ccc(F)cc2OC)sc1NC(=O)OCc1ccc2c(c1)ncn2CC` [Example 9-346], the minimal effective concentration worked out at 0.025 µM.

Take `CCc1nc(-c2ccccc2OC)sc1NC(=O)OCc1ccc2c(c1)nc1n2CCC1` [Example 9-347]: the minimal effective concentration was 1 µM.

As for `CCc1nc(-c2ccc(F)cc2C)sc1NC(=O)OCc1ccc2c(c1)nc1n2CCC1` [Example 9-348], the minimal effective concentration came out at 0.1 µM.

On to `CCc1nc(-c2ccc(Cl)cc2C)sc1NC(=O)OCc1ccc2c(c1)nc1n2CCC1` [Example 9-349], for which the minimal effective concentration came out at 0.025 µM.

Turning to `CCc1nc(-c2ccc(C)cc2C)sc1NC(=O)OCc1ccc2c(c1)nc1n2CCC1` [Example 9-350], the minimal effective concentration stood at 0.1 µM.

Consider `CCc1nc(-c2ccccc2OC)sc1NC(=O)OCc1ccc2c(c1)nc1n2CCCC1` [Example 9-351], for which the minimal effective concentration stood at 1 µM.

For `CCc1nc(-c2ccc(F)cc2OC)sc1NC(=O)OCc1ccc2c(c1)nc1n2CCCC1` [Example 9-352], the minimal effective concentration is 0.1 µM.
